Data taken from patent US8012956B2, “Tropane compounds” (Exelixis, Inc., priority 2007, dated 2011).

target: HSP90 (Homo sapiens, UniProt P07900); assay: HSP90 inhibition (HSP90 IC50); assay type: biochemical

IC50 [nM]	SMILES
< 500	CC(C)OCCNc1cc(C(=O)N[C@H]2C[C@H]3CC[C@@H](C2)N3c2ccc(C(=O)C3CC3)cn2)ccc1C(N)=O [N4-{8-[5-(cyclopropylcarbonyl)pyridin-2-yl]-8-azabicyclo[3.2.1]oct-3-endo-yl}-2-({2-[(1-methylethyl)oxy]ethyl}amino)benzene-1,4-dicarboxamide]
< 500	NC(=O)c1ccc(C(=O)NC2CC3CCC(C2)N3c2ccc(C(=O)NC3CCCC3)cn2)cc1N[C@H]1CC[C@H](O)CC1 (stereo partly drawn) [N4-(8-{5-((cyclopentylamino)carbonyl]pyridin-2-yl}-8-azabicyclo[3.2.1]oct-3-endo-yl)-2-[(4-trans-hydroxycyclohexyl)amino]benzene-1,4-dicarboxamide]
1000 to 2000	COc1cc(F)ccc1CNC(=O)c1ccc(N2[C@@H]3CC[C@H]2C[C@@H](NC(=O)c2cccc(OC)c2C)C3)nc1 [N-{[4-fluoro-2-(methyloxy)phenyl]methyl}-6-[3-endo-({[2-methyl-3-(methyloxy)phenyl]carbonyl}amino)-8-azabicyclo[3.2.1]oct-8-yl]pyridine-3-carboxamide]
< 500	CC[C@@H](C)Nc1cc(C(=O)NC2CC3CCC(C2)N3c2ccc(C(=O)C3CC3)cn2)c(C)cc1C(N)=O (stereo partly drawn) [N-{8-[5-(cyclopropylcarbonyl)pyridin-2-yl]-8-azabicyclo[3.2.1]oct-3-endo-yl}-2-methyl-5-{[(1R)-1-methylpropyl]amino}benzene-1,4-dicarboxamide]
500 to 999	Cc1cc(C(=O)NC2CC3CCC(C2)N3c2ccc(C(=O)N[C@@H]3CCN(C)C3)cn2)c(C)cc1C(N)=O (stereo partly drawn) [2,5-dimethyl-N-{8-[5-({[(3R)-1-methylpyrrolidin-3-yl]amino}carbonyl)pyridin-2-yl]-8-azabicyclo[3.2.1]oct-3-endo-yl}benzene-1,4-dicarboxamide]
1000 to 2000	COc1cccc(C(=O)N[C@H]2C[C@H]3CC[C@@H](C2)N3c2ccc(C(=O)Nc3ccc4c(c3)OCO4)cn2)c1C [N-1,3-benzodioxol-5-yl-6-[3-endo-({[2-methyl-3-(methyloxy)phenyl]carbonyl}amino)-8-azabicyclo[3.2.1]oct-8-yl]pyridine-3-carboxamide]
< 500	Cc1cc(C(=O)NC2CC3CCC(C2)N3c2ccc(C(=O)N[C@H]3CCCN(C)C3)cn2)c(C)cc1C(N)=O (stereo partly drawn) [2,5-dimethyl-N-{8-[5-({[(3S)-1-methylpiperidin-3-yl]amino}carbonyl)pyridin-2-yl]-8-azabicyclo[3.2.1]oct-3-endo-yl}benzene-1,4-dicarboxamide]
< 500	Cc1cc(C(N)=O)c(NCC(C)C)cc1C(=O)N[C@H]1C[C@H]2CC[C@@H](C1)N2c1ccc(C(=O)C2CC2)cn1 [N-{8-[5-(cyclopropylcarbonyl)pyridine-2-yl]-8-azabicyclo[3.2.1]oct-3-endo-yl}-2-methyl-5-[(2-methylpropyl)amino]benzene-1,4-dicarboxamide]
< 500	COc1cccc(C(=O)NC2CC3CCC(C2)N3c2ccc(C(=O)N[C@@H]3CCN(C)C3)cn2)c1C (stereo partly drawn) [6-[3-endo-({[2-methyl-3-(methyloxy)phenyl]carbonyl}amino)-8-azabicyclo[3.2.1]oct-8-yl]-N-[(3R)-1-methylpyrrolidin-3-yl]pyridine-3-carboxamide]
< 500	C[C@H](NC(=O)c1ccc(N2C3CCC2CC(NC(=O)c2ccc(C(N)=O)c(N[C@H]4CC[C@H](O)CC4)c2)C3)nc1)c1ccc(N2CCN(C)CC2)cc1 (stereo partly drawn) [2-[(4-hydroxycyclohexyl)amino]-N4-(8-{5-[({(1S)-1-[4-(4-methylpiperazin-1-yl)phenyl]ethyl}amino)carbonyl]pyridin-2-yl}-8-azabicyclo[3.2.1]oct-3-endo-yl)benzene-1,4-dicarboxamide]
< 500	C[C@H](NC(=O)c1ccc(N2C3CCC2CC(NC(=O)c2ccc(C(N)=O)c(NCCN4CCOCC4)c2)C3)nc1)c1ccc(N2CCN(C)CC2)cc1 (stereo partly drawn) [N4-(8-{5-[({(1S)-1-[4-(4-methylpiperazin-1-yl)phenyl]ethyl}amino)carbonyl]pyridin-2-yl}-8-azabicyclo[3.2.1]oct-3-endo-yl)-2-[(2-morpholin-4-ylethyl)amino]benzene-1,4-dicarboxamide]
< 500	Cc1cc(C(N)=O)c(NC2CCC2)cc1C(=O)N[C@H]1C[C@H]2CC[C@@H](C1)N2c1ccc(C(=O)C2CC2)cn1 [5-(cyclobutylamino)-N-{8-[5-(cyclopropylcarbonyl)pyridin-2-yl]-8-azabicyclo[3.2.1]oct-3-endo-yl}-2-methylbenzene-1,4-dicarboxamide]
1000 to 2000	COc1cccc(C(=O)N[C@H]2C[C@H]3CC[C@@H](C2)N3c2ccc(C(=O)NCCN3CCCCC3)cn2)c1C [6-[3-endo-({[2-methyl-3-(methyloxy)phenyl]carbonyl}amino)-8-azabicyclo[3.2.1]oct-8-yl]-N-(2-piperidin-1-ylethyl)pyridine-3-carboxamide]
< 500	CC[C@@H](C)Nc1cc(C(=O)NC2CC3CCC(C2)N3c2ccc(C(=O)C3CC3)cn2)c(C(F)(F)F)cc1C(N)=O (stereo partly drawn) [N-{8-[5-(cyclopropylcarbonyl)pyridin-2-yl]-8-azabicyclo[3.2.1]oct-3-endo-yl}-5-{[(1R)-1-methylpropyl]amino}-2-(trifluoromethyl)benzene-1,4-dicarboxamide]
2000 to 10000	Cc1cccc(C(=O)N[C@H]2C[C@H]3CC[C@@H](C2)N3c2ccc(C(=O)NCc3ccccc3)cn2)c1C [6-(3-endo-{[(2,3-dimethylphenyl)carbonyl]amino}-8-azabicyclo[3.2.1]oct-8-yl)-N-(phenylmethyl)pyridine-3-carboxamide]
< 500	CC(=O)c1ccc(N2C3CCC2CC(NC(=O)c2ccc(C(N)=O)c(N[C@H]4CC[C@H](O)CC4)c2)C3)nc1 (stereo partly drawn) [N4-[8-(5-acetylpyridin-2-yl)-8-azabicyclo[3.2.1]oct-3-endo-yl]-2-[(trans-4-hydroxycyclohexyl)amino]benzene-1,4-dicarboxamide]
< 500	COc1ccc(Nc2cc(C(=O)N[C@H]3C[C@H]4CC[C@@H](C3)N4c3ccc(C(C)=O)cn3)ccc2C(N)=O)cc1OCCN1CCOCC1 [N4-[8-(5-acetylpyridin-2-yl)-8-azabicyclo[3.2.1]oct-3-endo-yl]-2-({4-(methyloxy)-3-[(2-morpholin-4-ylethyl)oxy]phenyl}amino)benzene-1,4-dicarboxamide]
< 500	COc1cccc(C(=O)N[C@H]2C[C@H]3CC[C@@H](C2)N3c2ccc(C(=O)NCc3ccc(N4CCOCC4)cc3)cn2)c1C [6-[3-endo-({[2-methyl-3-(methyloxy)phenyl]carbonyl}amino)-8-azabicyclo[3.2.1]oct-8-yl]-N-[(4-morpholin-4-ylphenyl)methyl]pyridine-3-carboxamide]
< 500	CC(=O)c1ccc(N2[C@@H]3CC[C@H]2C[C@@H](NC(=O)c2ccc(C(N)=O)c(NCC4CCNC4)c2)C3)nc1 (stereo partly drawn) [N4-[8-(5-acetylpyridin-2-yl)-8-azabicyclo[3.2.1]oct-3-endo-yl]-2-[(pyrrolidin-3-ylmethyl)amino]benzene-1,4-dicarboxamide]
2000 to 10000	COc1cccc(C(=O)N[C@H]2C[C@H]3CC[C@@H](C2)N3c2ccc(C(=O)Nc3ccccc3C)cn2)c1C [6-[3-endo-({[2-methyl-3-(methyloxy)phenyl]carbonyl}amino)-8-azabicyclo[3.2.1]oct-8-yl]-N-(2-methylphenyl)pyridine-3-carboxamide]
1000 to 2000	COc1cccc(C(=O)NC2CC3CCC(C2)N3c2ccc(C(=O)NCC(O)CO)cn2)c1C (stereo not drawn) [N-(2,3-dihydroxypropyl)-6-[3-endo-({[2-methyl-3-(methyloxy)phenyl]carbonyl}amino)-8-azabicyclo[3.2.1]oct-8-yl]pyridine-3-carboxamide]
< 500	COc1ccc(CNC(=O)c2ccc(N3[C@@H]4CC[C@H]3C[C@@H](NC(=O)c3cccc(OC)c3C)C4)nc2)cc1 [6-[3-endo-({[2-methyl-3-(methyloxy)phenyl]carbonyl}amino)-8-azabicyclo[3.2.1]oct-8-yl]-N-{[4-(methyloxy)phenyl]methyl}pyridine-3-carboxamide]
2000 to 10000	COCCNC(=O)c1ccc(N2[C@@H]3CC[C@H]2C[C@@H](NC(=O)c2cccc(OC)c2C)C3)nc1 [6-[3-endo-({[2-methyl-3-(methyloxy)phenyl]carbonyl}amino)-8-azabicyclo[3.2.1]oct-8-yl]-N-[2-(methyloxy)ethyl]pyridine-3-carboxamide]
500 to 999	Cc1cc(C(N)=O)ccc1C(=O)N[C@H]1C[C@H]2CC[C@@H](C1)N2c1ccc(C(=O)NCc2ccccc2)cn1 [2-methyl-N 1-[8-(5-{[(phenylmethyl)amino]carbonyl}pyridin-2-yl)-8-azabicyclo[3.2.1]oct-3-endo-yl]benzene-1,4-dicarboxamide]
2000 to 10000	CCCc1c(OC)cccc1C(=O)N[C@H]1C[C@H]2CC[C@@H](C1)N2c1ccc(C(=O)NCc2ccccc2)cn1 [6-[3-endo-({[3-(methyloxy)-2-propylphenyl]carbonyl}amino)-8-azabicyclo[3.2.1]oct-8-yl]-N-(phenylmethyl)pyridine-3-carboxamide]
< 500	CCCC(CCC)Nc1cc(C(=O)N[C@H]2C[C@H]3CC[C@@H](C2)N3c2ccc(C(C)=O)cn2)ccc1C(N)=O [N4-[8-(5-acetylpyridin-2-yl)-8-azabicyclo[3.2.1]oct-3-endo-yl]-2-[(1-propylbutyl)amino]benzene-1,4-dicarboxamide]
1000 to 2000	COc1cccc(C(=O)N[C@H]2C[C@H]3CC[C@@H](C2)N3c2ccc(C(=O)NCCN3CCOCC3)cn2)c1C [6-[3-endo-({[2-methyl-3-(methyloxy)phenyl]carbonyl}amino)-8-azabicyclo[3.2.1]oct-8-yl]-N-(2-morpholin-4-ylethyl)pyridine-3-carboxamide]
< 500	CC(=O)c1ccc(N2C3CCC2CC(NC(=O)c2cc(N[C@H]4CC[C@H](O)CC4)c(C(N)=O)cc2C)C3)nc1 (stereo partly drawn) [N-[8-(5-acetylpyridin-2-yl)-8-azabicyclo[3.2.1]oct-3-endo-yl]-5-[(trans-4-hydroxycyclohexyl)amino]-2-methylbenzene-1,4-dicarboxamide]
2000 to 10000	COc1cccc(C(=O)N[C@H]2C[C@H]3CC[C@@H](C2)N3c2ccc(C(N)=O)cn2)c1CC(O)CO (stereo partly drawn) [6-[3-endo-({[2-(2,3-dihydroxypropyl)-3-(methyloxy)phenyl]carbonyl}amino)-8-azabicyclo[3.2.1]oct-8-yl]pyridine-3-carboxamide]
